Source: PubChem BioAssay AID2305 (GlaxoSmithKline (GSK), 2010)

Each compound was assayed on P. falciparum 3D7 growth, pLDH absorbance (assay: P. falciparum 3D7 growth inhibition, dose response, strain 3D7 (AID 2305)).
In the case of `O=C(C=Cc1ccc(Cl)c(Cl)c1)NCCCCCN1CCCC(CCCNC(=O)c2sc3ccccc3c2Cl)C1` (stereo not given), the IC50 is reported as 1030 nM. Compound `CC(=O)Nc1ccc(CN(Cc2ccc(F)cc2)Cc2ccc3c(c2)OCO3)cc1` has an IC50 of 940 nM. `CN1CCN(CCCNCc2ccccc2-c2cccc(CNCc3ccc4c(c3)OCO4)c2)CC1` showed an IC50 of 790 nM. `Cn1cncc1C(=O)Nc1ccc(-c2cccc(-c3nc4ccc(C(F)(F)F)cc4[nH]3)c2)cc1` gave an IC50 of 860 nM. `CCNCc1ccc(-c2cccc(-c3nc4ccccc4[nH]3)c2)cc1` showed an IC50 of 550 nM. For `CC(=O)Nc1cc(C(=O)Nc2cccc(-c3csc(-c4nc5ccccc5[nH]4)c3)c2)ccc1C`, the IC50 was 460 nM. `COc1ccc(N2CCc3c(-c4cccc5cnccc45)cc(C)nc32)c(C)c1` was tested, and the IC50 was 660 nM. Compound `Cc1cc(OCC2CCN(c3ncc(C(=O)NC4CC4)cc3Cl)CC2)ccc1F` has an IC50 of 790 nM. For `Cc1cccc2[nH]c(-c3ccc(-c4cccc(CNCCNC(=O)c5ccnn5C)c4)cc3)nc12`, the IC50 was 400 nM. `O=C(NCc1ccc(Cl)c(Cl)c1)c1cccc(C2CCCN(Cc3ccc4nc[nH]c4c3)C2)c1` (stereo not given) gave an IC50 of 930 nM. `COc1ccc2nc3cc(Cl)ccc3c(NCCc3ccccc3)c2c1` showed an IC50 of 950 nM. `CC1CCCCC1N(C)C1CCN(CCCNC(=O)C=Cc2ccc(Cl)cc2Cl)CC1` (stereo not given) gave an IC50 of 650 nM. With `Nc1cccc(CNCc2ccc(-c3ccc(-c4nc5ccc(C(F)(F)F)cc5[nH]4)s3)cc2)c1` the IC50 was 440 nM. Work on `Cc1nnsc1C(=O)Nc1ccc(-c2cccc(-c3nc4c(C)cccc4[nH]3)c2)cc1` yielded an IC50 of 630 nM. In the case of `O=S(=O)(NCCN1CCCC1)c1ccc(-c2ccc(CNCc3ccccc3)cc2)s1`, the IC50 is reported as 850 nM. With `CS(=O)(=O)c1ccc(CNCc2ccc(-c3cccc(-c4nc5ccc(C(F)(F)F)cc5[nH]4)c3)cc2)cc1` the IC50 was 140 nM. Compound `CCOc1cc(C)c(C2CCN(CCCCNC(=O)c3ccc(NC(=O)c4ccc(Cl)cc4)cc3)CC2)cc1C` has an IC50 of 740 nM. `COc1ccc(CN(C)CCCc2ccc(NC(=O)Cc3ccc4nc(-c5ccccc5)ccc4c3)cc2)cc1OC` was tested, and the IC50 was 530 nM. Work on `c1cc(-c2ccc(CNCCCN3CCOCC3)cc2)cc(-c2nc3ccccc3[nH]2)c1` yielded an IC50 of 210 nM. In the case of `COc1cc2nc(N3CCC(CNC(=O)c4ccc(C(C)=O)cc4)CC3)nc(N)c2cc1OC`, the IC50 is reported as 1120 nM. With `CCN(CC)CCCN(C(=O)c1cc2c(C)nn(-c3ccccc3)c2s1)c1nc(-c2ccc(OC)cc2)cs1` the IC50 was 1150 nM. For `Cc1nc(N)nc(N)c1-c1ccc(Br)c(Br)c1`, the IC50 was 50 nM. `COc1ccc2nccc([C@@H](O)CN3CCC(NC(=O)[C@@H]4Cc5ccccc5CN4C(=O)OC(C)(C)C)CC3)c2c1` was tested, and the IC50 was 890 nM. For `COc1ccc2nccc(NN=Cc3ccc([N+](=O)[O-])cc3)c2c1`, the IC50 was 710 nM. `COc1cc(Cc2cnc(N)nc2N)ccc1OCc1ccc(F)c(F)c1` was tested, and the IC50 was 910 nM. Compound `CCc1c[nH]c2c(N3CCCCS3(=O)=O)cc(C(=O)N[C@@H](Cc3ccccc3)[C@H](O)CNCc3cccc(OC)c3)cc12` has an IC50 of 910 nM. `COc1cccc2c(NCCNc3ccnc4c(OC)cccc34)ccnc12` gave an IC50 of 270 nM. In the case of `COc1cc2nc(N3CCC(CNC(=O)c4cc(Br)c(Br)s4)CC3)nc(N)c2cc1OC`, the IC50 is reported as 710 nM. `O=C1C[C@@H]([S@@](=O)Cc2nccs2)N1CCOCCCCCCc1ccc(Cl)cc1` showed an IC50 of 1020 nM. Work on `NC1CCN(CCNCc2cccc(-c3ccc(-c4nc5ccc(F)cc5[nH]4)cc3)c2)C1` (stereo not given) yielded an IC50 of 730 nM. In the case of `O=C(Nc1cccc(Cl)c1N1CCOCC1)C(Cl)(Cl)Cl`, the IC50 is reported as 980 nM. With `CCOc1ccc(-c2nonc2NC(=O)c2ccccc2)cc1OCC` the IC50 was 260 nM. For `Cc1nc(NCc2ccccc2)cc(NCC(O)c2ccc(O)cc2)n1` (stereo not given), the IC50 was 1230 nM. In the case of `CC(NC(C)c1cccc(Cl)c1)C(=O)Nc1cc(C(F)(F)F)ccc1N1CCOCC1` (stereo not given), the IC50 is reported as 1090 nM. `O=C(NC1CC1)c1cnc(N2CCC(c3ccccc3)CC2)c(Cl)c1` gave an IC50 of 850 nM. With `O=C(Nc1ccsc1C(=O)NC1CCCCC1)c1ccc(F)cc1` the IC50 was 1210 nM. `O=C(Nc1cccc(-c2cccc(-c3ccc(F)cc3)n2)c1)c1ccc([N+](=O)[O-])o1` gave an IC50 of 360 nM. `COc1ccc(C(=C(C)CC(C)C(=O)O)c2ccccc2)cc1` (stereo not given) showed an IC50 of 840 nM. In the case of `O=C(Nc1cccc(CN2CCCN(Cc3cccc(O)c3)CC2)c1)c1cc2ccccc2s1`, the IC50 is reported as 360 nM. Compound `C=CCc1c(C(=O)NCC23CC4CC(CC(C4)C2)C3)[nH]c2ccccc2c1=O` has an IC50 of 1030 nM. `COc1cccc2c(NN=Cc3cccc(Cl)c3)ccnc12` was tested, and the IC50 was 840 nM. For `CC(C)CNC(=O)c1ccnc(-c2ccc(CNC3Cc4ccccc4C3)cc2)c1`, the IC50 was 790 nM. Compound `Cc1ccc(N2C(=O)C3C(C2=O)[C@]2(c4ccccc4)C(=O)[C@@]3(c3ccccc3)C(c3ccccc3)=C2c2ccccc2)cc1` (stereo not given in full) has an IC50 of 870 nM. `CC(=O)c1cccc(NC(=O)NC2CCN(CCCCCNC(=O)/C=C/c3ccc(Cl)c(Cl)c3)CC2)c1` gave an IC50 of 840 nM. With `COc1cccc(C(=O)NC(c2ccc(Cl)cc2Cl)c2cc(Cl)c3cccnc3c2O)c1` (stereo not given) the IC50 was 450 nM. With `CCN(CC)CCN(CCCc1ccc(-c2ccc(C(F)(F)F)cc2)cc1)C(=O)Cn1c(CCc2cccc(F)c2F)nc(=O)c2ccccc21` the IC50 was 770 nM. Work on `COc1ccc(N2CCN(CCCC/C=C/c3ccc(NC(=O)c4cc(Cl)cc(Cl)c4)cc3)CC2)c(OC)c1` yielded an IC50 of 660 nM. `COc1ccc(N2CCN(CCCCNC(=O)c3ccc(NC(=O)c4ccc(Cl)c(Cl)c4)cc3)CC2)c(OC)c1` gave an IC50 of 210 nM. `O=c1cc(NCCCNCc2ccc(C(F)(F)F)c(F)c2)[nH]c2ccccc12` gave an IC50 of 1190 nM. Work on `Cc1ccc2nc(C)cc(NN=Cc3cccc([N+](=O)[O-])c3)c2c1` yielded an IC50 of 880 nM. Work on `O=S(=O)(c1cc(Cl)sc1Cl)N(CCC(O)(C(F)(F)F)C(F)(F)F)Cc1cccc(O)c1` yielded an IC50 of 740 nM. For `C=C[C@H]1CN(CCCCCCC)CC[C@H]1CCN(C)c1ccnc2ccc(OC)cc12`, the IC50 was 450 nM. Compound `COc1c(C(=O)NC2CCN(Cc3ccccc3)C2)cnc2ccccc12` (stereo not given) has an IC50 of 960 nM. With `CCCCC(=O)Nc1ccc(Nc2nc(C)cc(N3CCCC3)n2)cc1` the IC50 was 1060 nM. In the case of `CC(C)(CNCc1ccc(Cl)cc1)c1nc(-c2ccc(Cl)c(O)c2)c(-c2ccncc2)[nH]1`, the IC50 is reported as 480 nM. With `Cc1nc(-c2ccc3c(c2)CCN(CCC2CCC(NC(=O)c4cc5cccc(Cl)c5[nH]4)CC2)CC3)no1` (stereo not given) the IC50 was 630 nM. `CCCCCNc1nc2nc(N)nc(N)c2nc1-c1ccccc1` gave an IC50 of 950 nM. Compound `Cc1[nH]c2ccc(O)cc2c1C1CCN(CCCCCNC(=O)/C=C/c2ccc(Cl)c(Cl)c2)CC1` has an IC50 of 770 nM. Compound `COc1ccc2nccc([C@@H](O)CN3CCC(NC(=O)C(c4cc5ccccc5s4)N4CC(C)OC(C)C4)CC3)c2c1` (stereo not given in full) has an IC50 of 980 nM. Compound `COc1ccc(C=C2SC(=O)NC2=Nc2ccccc2)c(OC)c1` has an IC50 of 470 nM. `CC[C@H]1CN2CC[C@@H]1C[C@H]2[C@H](O)c1cc(-c2c(C)noc2C)nc2ccc(OC)cc12` was tested, and the IC50 was 30 nM. In the case of `CCCc1cc(NC2CCN(C)CC2)nc(Nc2ccc(F)cc2)n1`, the IC50 is reported as 800 nM. `CCS[C@@H]1O[C@H](COC(=O)c2ccccc2)[C@H](OC(=O)c2ccccc2)[C@H](OC(=O)c2ccccc2)[C@H]1OC(=O)c1ccccc1` showed an IC50 of 810 nM. In the case of `Nc1ncc(-c2ccc(Cl)c(Cl)c2)c(N)n1`, the IC50 is reported as 730 nM. `OCCOCn1cnc2cnc(N[C@H]3OC[C@H](O)[C@@H](O)[C@@H]3O)nc21` gave an IC50 of 1640 nM. `COc1ccc2nccc([C@@H](O)CN3CCC(NCc4ccc5c(c4)NC(=O)CS5)CC3)c2c1` showed an IC50 of 570 nM. `N#Cc1cccc(NC(=O)Nc2cccc(OC3CCN(Cc4ccccc4)CC3)c2)c1` gave an IC50 of 840 nM. Work on `COc1ccc(OC)c(-c2ccc(O)c(CNCC(C)c3ccccc3)c2)c1` (stereo not given) yielded an IC50 of 930 nM. `C[C@@H](NC(C)(C)C)[C@H](O)c1ccc(Cl)c(C(F)(F)F)c1` was tested, and the IC50 was 740 nM. Compound `CN(C)CCNC(=O)c1cccc(-c2cnc3ccc(NCc4ccc(Cl)c(Cl)c4)nn23)c1` has an IC50 of 700 nM. With `CN1CCC(C(=O)N(Cc2ccc(-c3ccc(CNCCc4ccccc4)cn3)cc2)Cc2cccc(F)c2)CC1` the IC50 was 940 nM. `O=C(Nc1cccc(C(F)(F)F)c1)c1cccc(S(=O)(=O)NC2CCCN(CC3CCCCC3)C2)c1` (stereo not given) gave an IC50 of 860 nM. With `CC(C)CC(NC(=O)c1cccc(OCCN2CCOCC2)c1)C(=O)NC(/C=N/NC(=O)c1ccccc1)CCc1ccccc1` (stereo not given) the IC50 was 250 nM. Work on `FC(F)(F)c1ccc(CNC2CCN(CC3CCCCC3)CC2)cc1` yielded an IC50 of 930 nM. For `Nc1c2c(nc3ccc(Oc4ccc(Br)cc4Br)cc13)CCCC2`, the IC50 was 860 nM. In the case of `CCN(CC)CCN(Cc1ccc(-c2ccc(C(F)(F)F)cc2)cc1)C(=O)Cn1c(CCc2cccc(F)c2F)nc(=O)c2ccc(F)cc21`, the IC50 is reported as 360 nM. Compound `c1cc(CNC2Cc3ccc(-c4cccs4)cc3C2)cc(-n2ccnc2)c1` (stereo not given) has an IC50 of 590 nM. With `COc1ccc(-c2cc(C(=O)Nc3ccc(CCCN(C)Cc4ccc(OC)c(OC)c4)cc3)c3ccccc3n2)cc1` the IC50 was 700 nM. Work on `CCOc1ccc(C(=O)Nc2cc3c(c(C(F)(F)F)c2)CCNC3)cc1Cl` yielded an IC50 of 1060 nM. `O=[N+]([O-])c1ccc(C=NNc2nc(Nc3ccccc3)nc(Nc3ccccc3)n2)o1` showed an IC50 of 840 nM. For `CO/C(=C\C=C\c1cc2cc(Cl)c(Cl)cc2[nH]1)C(=O)NCCCN1CCN(Cc2ccccc2)CC1`, the IC50 was 910 nM. `COc1ccc2nccc(N3CCC(SCCNS(=O)(=O)c4ccc5c(c4)OCCO5)C3)c2n1` (stereo not given) showed an IC50 of 980 nM. `COc1ccccc1CCNc1nc(C)cc(N[C@@H](Cc2ccccc2)C(=O)Nc2ccccc2)n1` showed an IC50 of 1020 nM. In the case of `Cc1cc(N(C)C)nc(Nc2ccc(NC(=O)c3ccccc3C)cc2)n1`, the IC50 is reported as 1130 nM. `Cc1nc(-c2cccc(C(=O)NC3CCC(CCN4CCc5ccc(-c6cccnc6)cc5CC4)CC3)c2)no1` (stereo not given) gave an IC50 of 760 nM. `Nc1c2c(nc3ccc(NC(=O)CCCCCCc4ccccc4)cc13)CCCC2` was tested, and the IC50 was 250 nM. In the case of `CCNc1nc(OCC(F)(F)F)nc(N(c2ccccc2)c2ccccc2)n1`, the IC50 is reported as 470 nM. `O=C(NCCN1CCOCC1)c1ccc(N2CCC(Oc3ccc4ccccc4c3)CC2)nc1` was tested, and the IC50 was 760 nM. For `Clc1cnc2ccc3c(c2c1CCN1CCC(NCc2cc4c(cn2)OCCO4)CC1)OCCO3`, the IC50 was 720 nM. With `CCN(CC)CCN(Cc1ccc(-c2ccc(C(F)(F)F)cc2)cc1)C(=O)Cn1c(CCc2ccc(F)c(F)c2F)nc(=O)c2ccccc21` the IC50 was 790 nM. `CN1CCN(CCCN(Cc2cccc(-c3ccc(CNCc4ccc5c(c4)OCO5)cc3)c2)C(=O)CCC2CCCC2)CC1` gave an IC50 of 1000 nM. `O=C(N[C@@H](Cc1ccccc1)C(=O)O)c1cc(-c2ccc(F)cc2)no1` (tested in a mixture with another compound) gave an IC50 of 800 nM. `O=C(NCCc1ccc(Cl)c(Cl)c1)[C@@H]1CCCN1C(=O)c1ccc(O)c(-c2cccc(C(F)(F)F)c2)c1` showed an IC50 of 820 nM. `Cc1nc(N)nc(N)c1-c1cc(Cl)c(Cl)c(Cl)c1` gave an IC50 of 830 nM. Work on `CCN(CC)CCNC(=O)c1ccc(NC(=O)c2cn(-c3ccccc3)nc2-c2cccs2)cc1` yielded an IC50 of 260 nM.
